Source: PubChem BioAssay AID1314 (NMMLSC, 2008)
Calls of active or inactive are those of the source.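 Rule for the calls: active = compounds raising the area under the GFP-over-time curve by more than 15% versus untreated cells, meaning slower Sic1 breakdown; inactive = the rest.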 Residues, ends and D or L forms follow the SMILES beside them. *: point of attachment. Cbz = O=C(OCc1ccccc1)*

Tested on: S. cerevisiae Cln2-overexpressing, Sic1-GFP degradation, flow cytometry
Experiment: yeast Sic1-GFP turnover with elevated Cln2 – secondary assay, flow cytometry, S. cerevisiae, mechanism study for 26S proteasome disassembly project (AID 1314)

SMILES	outcome
CC(=O)N1C(=O)C(=C2C=C(C)OC(C)=C2)c2ccccc21	active; degradation inhibitor
CC(C)C[C@@H](C=O)NC(=O)[C@H](CC(C)C)NC(=O)[C@H](CC(C)C)NC(=O)OCc1ccccc1 (Cbz-Leu-Leu-Leu-aldehyde)	active; degradation inhibitor
